Laboratory results published in PubChem BioAssay (NCI).
“And” between values parts separate entries of the source, which are not always exact repeats. Equal values may be shown once.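 Exposure lasted 48 hours, with cells grown in 96-well plates and compounds tested at five concentrations. GI50 = concentration required for 50% inhibition of growth. TGI: total growth inhibition.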

Test system: MDA-MB-468 breast
Experiment: DTP human tumour cell line panel, 48 h

Q: Which GI50 does the source give for OCc1ccc(N(Cc2ccc(F)cc2)C2CCC2)cc1Cl here?
A: 0.0176 µM

Q: And the TGI?
A: 0.0464 µM

Q: Which GI50 does the source give for COc1ccc(/C=C\c2cc(OC)c(OC)c(OC)c2)cc1NC(=O)[C@@H](N)CO here?
A: < 0.0178 µM

Q: And the TGI?
A: 1.27 µM

Q: Which GI50 does the source give for O=c1oc2ccccc2c(Cl)c1Cl here?
A: 1.85 µM

Q: And the TGI?
A: 4.32 µM

Q: Which results are given for Cn1cc(-c2nc(-c3c[nH]c4ncccc34)cs2)c2cc(Cl)ccc21?
A: GI50: 0.316 µM; TGI: 2.34 µM

Q: Which results are given for Cc1c(C(=O)CCl)c(=O)n(-c2ccccc2)n1C?
A: GI50: 0.675 µM; TGI: 3.08 µM

Q: What does the source list for O=S(=O)(Nc1cccc2ccccc12)c1ccc(-c2cnc(C3CC3)o2)cc1?
A: GI50: 0.0432 µM; TGI: 12.8 µM

Q: For COc1cc(-c2cc(C(=O)Nc3nc4ccccc4s3)nc3cc(-c4ccccc4)nn23)cc(OC)c1OC, which GI50 is on record?
A: 13.9 µM

Q: What about the TGI of the same compound?
A: 38 µM

Q: How did the GI50 turn out when COc1ccc(-c2nc3sccn3c2/C=C/C(=O)c2cc(OC)c(OC)c(OC)c2)cc1OC was run?
A: 2.15 µM

Q: And the TGI?
A: 5.02 µM

Q: What does the source list for CCNCCNc1cc(-c2ccc(Cl)cc2)c(C#N)c2nc3ccccc3n12?
A: GI50: 0.642 µM; TGI: 2.09 µM

Q: For COc1ccc(-n2c(-c3ccc(NC(=O)CCCl)cc3)nnc2-c2cc(OC)c(OC)c(OC)c2)cc1, which GI50 is on record?
A: 2.08 µM

Q: What about the TGI of the same compound?
A: 5.68 µM

Q: For CS(=O)(=O)c1ccc(Oc2nccc(-c3c(-c4ccc(F)cc4)ncn3C3CCNCC3)n2)cc1, which GI50 is on record?
A: 19.1 µM

Q: And the TGI?
A: > 25 µM

Q: Which GI50 does the source give for Nc1nc(N)c2c(n1)NC(c1ccc(F)cc1)CC(c1ccc(Nc3nc(NCCO)nc(Nc4ccc(Cl)cc4)n3)cc1)=N2 (stereo not given) here?
A: 1.48 µM

Q: And the TGI?
A: 3.15 µM

Q: Which results are given for COc1cccc(-c2nc(-c3ccc(NS(=O)(=O)c4ccccc4)cc3)[nH]c2-c2ccnc(Br)c2)c1?
A: GI50: 1.98 µM; TGI: 5.23 µM

Q: How did the GI50 turn out when COC(=O)/C=C1\SC(=Nc2ccc(C(F)(F)F)cc2)N(CCc2c[nH]c3ccccc23)C1=O was run?
A: 2.08 µM

Q: And the TGI?
A: 4.05 µM

Q: COc1ccc(/C=C(\C#N)n2nnc3cc(Cl)ccc32)cc1 was tested. Which GI50 did it give?
A: 0.258 µM

Q: And the TGI?
A: 0.941 µM

Q: Which GI50 does the source give for CC(C)(C)[Si](C)(C)OC1[C@@H](O[Si](C)(C)C(C)(C)C)[C@@H](CNC(=O)NC(=O)NC(=O)CI)O[C@H]1n1cnc2c(NC(=O)Nc3ccccc3)ncnc21 (stereo not given in full) here?
A: 0.334 µM

Q: What about the TGI of the same compound?
A: 2.06 µM

Q: With Cc1ccc2c(/C=C/C(=O)c3cc(CN4CCOCC4)c(O)c4nc(C)ccc34)cc(CN3CCOCC3)c(O)c2n1 as the compound, how does the GI50 read?
A: 0.434 µM

Q: What about the TGI of the same compound?
A: 2.02 µM

Q: With Clc1ccc(Nc2ccnc(NCCNc3ccnc4cc(Cl)ccc34)n2)cc1 as the compound, how does the GI50 read?
A: 1.06 µM

Q: What about the TGI of the same compound?
A: 2.34 µM

Q: Which GI50 does the source give for O=C(Nc1cccc(NS(=O)(=O)c2ccc(F)cc2)c1)c1ccc(-c2ccccc2)cc1 here?
A: 2.18 µM

Q: What about the TGI of the same compound?
A: 9.56 µM

Q: Which results are given for Clc1ccc(N2COOC3(OOC2)C2CC4CC(C2)CC3C4)cc1?
A: GI50: 5.8 µM; TGI: > 67.8 µM

Q: O=C(CSc1nc2ccc([N+](=O)[O-])cc2[nH]1)Nc1cccc(C(F)(F)F)c1 was tested. Which GI50 did it give?
A: 0.964 µM

Q: What about the TGI of the same compound?
A: 4.71 µM

Q: COc1cc(-c2nnc(SCc3ccc(O)c4ncccc34)n2-c2ccccc2)cc(OC)c1OC was tested. Which GI50 did it give?
A: 0.251 µM

Q: And the TGI?
A: 2.53 µM

Q: O=C(CCl)Nc1ccccc1SCc1cc(Cl)cc2c1OCOC2 was tested. Which GI50 did it give?
A: 1.93 µM

Q: And the TGI?
A: 4.5 µM

Q: Which results are given for Nc1nc(-c2cccc([N+](=O)[O-])c2)c(N=Nc2ccccc2[N+](=O)[O-])s1?
A: GI50: 2.7 µM; TGI: 26.2 µM

Q: Which GI50 does the source give for c1ccc2c(NCCCn3ccnc3)c3oc4ccccc4c3nc2c1 here?
A: 1.66 µM

Q: What about the TGI of the same compound?
A: 3.42 µM

Q: Which GI50 does the source give for c1ccc(Oc2c3ccccc3nc3ccccc23)cc1 here?
A: 1.35 µM

Q: And the TGI?
A: 4.62 µM

Q: With COc1ccc(C(=O)c2cc(OC)c(OC)c(OC)c2)cc1/C=C/C(=O)c1ccc(O)cc1 as the compound, how does the GI50 read?
A: 2.07 µM

Q: What about the TGI of the same compound?
A: 8.09 µM

Q: Cc1ccc(C)c(-n2c(-c3ccc(Br)cc3)csc2=NC(=O)c2ccccc2F)c1 was tested. Which GI50 did it give?
A: > 100 µM

Q: And the TGI?
A: > 100 µM

Q: With CCN(Cc1ccc(F)cc1F)c1ccc(CO)c(Cl)c1 as the compound, how does the GI50 read?
A: 0.0159 µM

Q: And the TGI?
A: 0.0395 µM

Q: For C[C@@H](Oc1cc(-c2cnn(C3CCNCC3)c2)cnc1N)c1c(Cl)ccc(F)c1Cl, which GI50 is on record?
A: 1.06 µM

Q: What about the TGI of the same compound?
A: 3.72 µM

Q: With CCOC(=O)Oc1c(OC)cc(C(=O)c2ccc(OC)c(OC(=O)CCl)c2OC)cc1OC as the compound, how does the GI50 read?
A: 2.49 µM

Q: What about the TGI of the same compound?
A: > 100 µM

Q: How did the GI50 turn out when O=C1C(Cl)=C(Oc2ccccc2)C(=O)c2ccccc21 was run?
A: 1.93 µM

Q: And the TGI?
A: 3.75 µM

Q: What does the source list for C=C1C(=O)O[C@H]2[C@H]1CC/C(COC(=O)/C=C/c1cccnc1)=C\CC[C@@]1(C)O[C@@H]21?
A: GI50: 0.831 µM; TGI: 4.3 µM

Q: For O=P(Oc1ccccc1)(Oc1ccccc1)C(O)c1ccccc1 (stereo not given), which GI50 is on record?
A: 35 µM

Q: What about the TGI of the same compound?
A: > 100 µM

Q: Which GI50 does the source give for COc1c(O)cc2oc3cc(O)c(CC=C(C)C)c(O)c3c(=O)c2c1C/C=C(\C)CCC=C(C)C here?
A: 7.16 µM

Q: And the TGI?
A: 12.5 µM

Q: What does the source list for CCN(CC)c1ccc2[nH]c3c(C(N)=O)cc(=O)c(=O)c=3oc2c1?
A: GI50: 1.85 µM; TGI: 4.75 µM

Q: Which GI50 does the source give for O=C1NC(=O)[C@@H](c2cn3c4c(cccc24)CCC3)[C@@H]1c1c[nH]c2ccccc12 here?
A: 0.306 µM and 0.26 µM

Q: What about the TGI of the same compound?
A: > 10 µM and 3.81 µM

Q: How did the GI50 turn out when COc1ccc(/C=C/C(=O)/C=C(/C=C/c2ccc(OC)c(OC)c2)OB(F)F)cc1OC was run?
A: 0.578 µM

Q: What about the TGI of the same compound?
A: 2.89 µM

Q: How did the GI50 turn out when O=C(Nc1ncc([N+](=O)[O-])s1)c1cccc([N+](=O)[O-])c1 was run?
A: 3.42 µM

Q: And the TGI?
A: 38.7 µM

Q: Which results are given for O=C1c2[nH]cc(CN[C@@H]3CCCN3)c2C(=O)c2c1c(O)c1ccccc1c2O?
A: GI50: 1.18 µM; TGI: 2.65 µM
